The results in this text go back to US8648066B2 (Exelixis, Inc., priority 2009, dated 2014).

SMILES strings stand for the structures.

Sequence of PI3Kα (P42336 whole entry, species assumed): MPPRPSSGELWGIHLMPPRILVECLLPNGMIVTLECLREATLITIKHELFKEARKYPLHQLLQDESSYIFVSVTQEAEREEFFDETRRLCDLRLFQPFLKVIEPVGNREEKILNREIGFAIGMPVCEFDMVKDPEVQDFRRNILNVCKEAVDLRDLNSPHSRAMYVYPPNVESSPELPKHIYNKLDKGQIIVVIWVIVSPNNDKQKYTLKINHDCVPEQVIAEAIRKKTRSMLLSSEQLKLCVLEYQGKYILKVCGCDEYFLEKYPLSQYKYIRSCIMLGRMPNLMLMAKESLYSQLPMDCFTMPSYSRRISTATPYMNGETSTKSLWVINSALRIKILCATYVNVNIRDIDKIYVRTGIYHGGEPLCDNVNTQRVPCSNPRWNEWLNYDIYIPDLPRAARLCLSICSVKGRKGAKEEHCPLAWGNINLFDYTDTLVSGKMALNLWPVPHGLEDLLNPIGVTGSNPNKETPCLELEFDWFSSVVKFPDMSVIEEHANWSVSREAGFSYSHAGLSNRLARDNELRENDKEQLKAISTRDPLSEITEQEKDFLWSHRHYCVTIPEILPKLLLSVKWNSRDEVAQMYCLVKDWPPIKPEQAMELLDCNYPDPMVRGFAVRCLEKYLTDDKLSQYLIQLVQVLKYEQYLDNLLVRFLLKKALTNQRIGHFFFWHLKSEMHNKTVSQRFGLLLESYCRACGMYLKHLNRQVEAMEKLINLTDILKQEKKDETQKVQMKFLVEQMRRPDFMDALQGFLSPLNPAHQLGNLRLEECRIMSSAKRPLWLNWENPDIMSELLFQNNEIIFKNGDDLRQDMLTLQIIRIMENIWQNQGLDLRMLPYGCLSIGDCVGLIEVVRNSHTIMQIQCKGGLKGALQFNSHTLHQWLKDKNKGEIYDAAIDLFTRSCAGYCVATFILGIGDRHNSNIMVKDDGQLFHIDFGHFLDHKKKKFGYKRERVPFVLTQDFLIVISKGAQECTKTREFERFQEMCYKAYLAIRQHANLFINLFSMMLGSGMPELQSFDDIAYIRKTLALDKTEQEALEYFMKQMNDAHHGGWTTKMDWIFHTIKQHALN
Sequence of PI3Kα (P27986 whole entry partner, species assumed): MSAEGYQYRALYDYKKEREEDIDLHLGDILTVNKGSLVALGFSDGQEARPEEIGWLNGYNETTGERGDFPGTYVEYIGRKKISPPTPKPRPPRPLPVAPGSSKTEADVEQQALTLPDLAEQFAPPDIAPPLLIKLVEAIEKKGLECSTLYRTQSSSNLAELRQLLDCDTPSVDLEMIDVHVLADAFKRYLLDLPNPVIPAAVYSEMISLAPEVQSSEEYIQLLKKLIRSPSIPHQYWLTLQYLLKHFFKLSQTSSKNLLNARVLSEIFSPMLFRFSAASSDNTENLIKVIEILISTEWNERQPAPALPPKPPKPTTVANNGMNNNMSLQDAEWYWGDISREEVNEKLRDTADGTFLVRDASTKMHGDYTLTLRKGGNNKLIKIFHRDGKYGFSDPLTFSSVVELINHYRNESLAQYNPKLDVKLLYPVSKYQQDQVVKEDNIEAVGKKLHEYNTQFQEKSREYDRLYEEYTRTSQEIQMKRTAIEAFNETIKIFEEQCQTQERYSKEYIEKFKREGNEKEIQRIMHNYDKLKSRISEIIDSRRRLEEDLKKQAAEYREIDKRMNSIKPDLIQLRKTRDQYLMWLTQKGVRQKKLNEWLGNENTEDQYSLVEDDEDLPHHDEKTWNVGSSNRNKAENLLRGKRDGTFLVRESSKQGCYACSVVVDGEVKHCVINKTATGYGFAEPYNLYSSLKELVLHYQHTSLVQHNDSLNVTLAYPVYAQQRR

For the first assay, the target named is mTOR/GbL/Raptor (mTORC1) (Homo sapiens, UniProt P42345). Description: mTOR/GbL/Raptor (mTORC1) ELISA assay. The assay is classed as biochemical. As to conditions: phosphorylation of 4E-BP1; 0.2 nM mTORC1, 10 μM ATP; read-out: IC50 in this assay (mTORC1 ELISA). Summed up:
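Human mTORC1 (0.2 nM) phosphorylated 50 nM His-tagged 4E-BP1 with 10 µM ATP in HEPES pH 7.2 containing 10 mM MnCl2, 120 min at ambient temperature. Substrate was captured on Ni-chelate plates; phospho-4E-BP1 was detected by primary antibody and HRP secondary with luminescence.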
Consider `Cc1nc2ccc(-c3ccc4c(c3)CN(c3ncnc(Cc5ccccc5)c3C)CCO4)cc2[nH]1` [Example 41, 7-(2-methyl-1H-benzimidazol-6-yl)-4-[5-methyl-6-(phenylmethyl)pyrimidin-4-yl]-2,3,4,5-tetrahydro-1,4-benzoxazepine], for which the IC50 was 0.25 to 1 µM.

Turning to `Cc1nc2ccc(-c3ccc4c(c3)CN(c3ncnc5[nH]ncc35)CCO4)cc2[nH]1` [Example 52, 7-(2-methyl-1H-benzimidazol-6-yl)-4-(1H-pyrazolo[3,4-d]pyrimidin-4-yl)-2,3,4,5-tetrahydro-1,4-benzoxazepine], the half-inhibitory concentration (IC50) was 1 to 2 µM.

`Cc1nc2ccc(-c3ccc4c(c3)CN(c3nc(SCc5ccccc5)nc5c3CCC5)CCO4)cc2[nH]1` [Example 53, 7-(2-methyl-1H-benzimidazol-6-yl)-4-{2-[(phenylmethyl)thio]-6,7-dihydro-5H-cyclopenta[d]pyrimidin-4-yl}-2,3,4,5-tetrahydro-1,4-benzoxazepine]: the IC50 lay within 0.25 to 1 µM.

Consider `Cc1nc2ccc(-c3ccc4c(c3)CN(c3ncnc(C)c3CC(C)C)CCO4)cc2[nH]1` [Example 67, 7-(2-methyl-1H-benzimidazol-6-yl)-4-[6-methyl-5-(2-methylpropyl)pyrimidin-4-yl]-2,3,4,5-tetrahydro-1,4-benzoxazepine], for which the IC50 fell in the range of 0.25 to 1 µM.

On to `CSc1nc2c(c(N3CCOc4ccc(-c5ccc6nc(C)[nH]c6c5)cc4C3)n1)CC(C)C2` (stereo not drawn) [Example 71, 7-(2-methyl-1H-benzimidazol-6-yl)-4-[6-methyl-2-(methylthio)-6,7-dihydro-5H-cyclopenta[d]pyrimidin-4-yl]-2,3,4,5-tetrahydro-1,4-benzoxazepine], for which the IC50 lay in the range of 1 to 2 µM.

For the compound `Cc1nc2cc(-c3ccc4c(c3)CN(c3nc(CF)nc5c3CC(C)(C)CC5)CCO4)ccc2[nH]1` [Example 676, 4-[2-(fluoromethyl)-6,6-dimethyl-5,6,7,8-tetrahydroquinazolin-4-yl]-7-(2-methyl-1H-benzimidazol-5-yl)-2,3,4,5-tetrahydro-1,4-benzoxazepine], the IC50 is at most 0.01 µM.

On to `Cc1nc2cc(-c3ccc4c(c3)CN(c3nc(CN(C)C)nc(C)c3Cl)CCO4)ccc2[nH]1` [Example 677, 1-{5-chloro-4-methyl-6-[7-(2-methyl-1H-benzimidazol-5-yl)-2,3-dihydro-1,4-benzoxazepin-4(5H)-yl]pyrimidin-2-yl}-N,N-dimethylmethanamine], for which the IC50 is at least 2 µM.

As to `Cc1nc(CN(C)C)nc(N2CCOc3ccc(-c4cnc5sc(N)nc5c4)cc3C2)c1Cl` [Example 678, 6-(4-{5-chloro-2-[(dimethylamino)methyl]-6-methylpyrimidin-4-yl}-2,3,4,5-tetrahydro-1,4-benzoxazepin-7-yl)[1,3]thiazolo[5,4-b]pyridin-2-amine], the IC50 is 0.25 to 1 µM.

`Cc1nc2cc(-c3ccc4c(c3)CN(c3nc(CNCCF)nc(C)c3C(C)C)CCO4)ccc2[nH]1` [Example 679, 2-fluoro-N-({4-methyl-6-[7-(2-methyl-1H-benzimidazol-5-yl)-2,3-dihydro-1,4-benzoxazepin-4(5H)-yl]-5-(1-methylethyl)pyrimidin-2-yl}methyl)ethanamine]: the IC50 fell in the range of 0.01 to 0.05 µM.

For `Cc1nc(CNCCF)nc(N2CCOc3ccc(-c4cnc5sc(N)nc5c4)cc3C2)c1C(C)C` [Example 680, 6-{4-[2-{[(2-fluoroethyl)amino]methyl}-6-methyl-5-(1-methylethyl)pyrimidin-4-yl]-2,3,4,5-tetrahydro-1,4-benzoxazepin-7-yl}[1,3]thiazolo[5,4-b]pyridin-2-amine], the IC50 was at most 0.01 µM.

On to `Cc1nc2cc(-c3ccc4c(c3)CN(c3nc(CN(C)C)nc(C)c3-c3ccccc3)CCO4)ccc2[nH]1` [Example 681, N,N-dimethyl-1-{4-methyl-6-[7-(2-methyl-1H-benzimidazol-5-yl)-2,3-dihydro-1,4-benzoxazepin-4(5H)-yl]-5-phenylpyrimidin-2-yl}methanamine], for which the IC50 was 0.05 to 0.25 µM.

On to `Cc1nc(CN(C)C)nc(N2CCOc3ccc(-c4cnc5sc(N)nc5c4)cc3C2)c1-c1ccccc1` [Example 682, 6-(4-{2-[(dimethylamino)methyl]-6-methyl-5-phenylpyrimidin-4-yl}-2,3,4,5-tetrahydro-1,4-benzoxazepin-7-yl)[1,3]thiazolo[5,4-b]pyridin-2-amine], for which the IC50 was in the range of 0.01 to 0.05 µM.

For the compound `Cc1nc2cc(-c3ccc4c(c3)CN(c3nc(NCCN(C)C)nc(C)c3Cc3ccc(F)cc3)CCO4)ccc2[nH]1` [Example 683, N′-{5-[(4-fluorophenyl)methyl]-4-methyl-6-[7-(2-methyl-1H-benzimidazol-5-yl)-2,3-dihydro-1,4-benzoxazepin-4(5H)-yl]pyrimidin-2-yl}-N,N-dimethylethane-1,2-diamine], the IC50 lay within 0.01 to 0.05 µM.

For `CC1(C)CCc2nc(CC#N)nc(N3CCOc4ccc(-c5cnc6sc(N)nc6c5)cc4C3)c2C1` [Example 684, {4-[7-(2-amino[1,3]thiazolo[5,4-b]pyridin-6-yl)-2,3-dihydro-1,4-benzoxazepin-4(5H)-yl]-6,6-dimethyl-5,6,7,8-tetrahydroquinazolin-2-yl}acetonitrile], the IC50 is at most 0.01 µM.

With `CCN(CC)Cc1nc(C)c(C(C)C)c(N2CCOc3ccc(-c4ccc5nc(C)[nH]c5c4)cc3C2)n1` [Example 685, N-ethyl-N-({4-methyl-6-[7-(2-methyl-1H-benzimidazol-5-yl)-2,3-dihydro-1,4-benzoxazepin-4(5H)-yl]-5-(1-methylethyl)pyrimidin-2-yl}methyl)ethanamine], the IC50 was 0.05 to 0.25 µM.

For the compound `CC(=O)OCc1nc(C)c(C(C)C)c(N2CCOc3ccc(-c4ccc5nc(C)[nH]c5c4)cc3C2)n1` [Example 686, {4-methyl-6-[7-(2-methyl-1H-benzimidazol-5-yl)-2,3-dihydro-1,4-benzoxazepin-4(5H)-yl]-5-(1-methylethyl)pyrimidin-2-yl}methyl acetate], the IC50 fell in the range of 0.01 to 0.05 µM.

`Cc1nc2ccc(-c3ccc4c(c3)CN(c3nc(CO)nc(C)c3C(C)C)CCO4)cc2[nH]1` [Example 687, {4-methyl-6-[7-(2-methyl-1H-benzimidazol-5-yl)-2,3-dihydro-1,4-benzoxazepin-4(5H)-yl]-5-(1-methylethyl)pyrimidin-2-yl}methanol]: the IC50 was at most 0.01 µM.

For `Cc1nc(N)nc(N2CCOc3ccc(-c4cnc5[nH]cnc5c4)cc3C2)c1Cc1ccc(F)cc1` [Example 689, 5-[(4-fluorophenyl)methyl]-4-[7-(3H-imidazo[4,5-b]pyridin-6-yl)-2,3-dihydro-1,4-benzoxazepin-4(5H)-yl]-6-methylpyrimidin-2-amine], the IC50 was at most 0.01 µM.

In the case of `Cc1nc2cc(-c3ccc4c(c3)CN(c3nc(N)nc(C)c3Cc3ccc(F)cc3)CCO4)cnc2[nH]1` [Example 690, 5-[(4-fluorophenyl)methyl]-4-methyl-6-[7-(2-methyl-3H-imidazo[4,5-b]pyridin-6-yl)-2,3-dihydro-1,4-benzoxazepin-4(5H)-yl]pyrimidin-2-amine], the IC50 was at most 0.01 µM.

As to `COc1ccc2c(N3CCOc4ccc(-c5cnc6[nH]cnc6c5)cc4C3)nc(CN(C)C)nc2c1` [Example 691, 1-{4-[7-(3H-imidazo[4,5-b]pyridin-6-yl)-2,3-dihydro-1,4-benzoxazepin-4(5H)-yl]-7-(methyloxy)quinazolin-2-yl}-N,N-dimethylmethanamine], the IC50 was 1 to 2 µM.

`Cc1nc(N)nc(N2CCOc3ccc(-c4cnc5sc(N)nc5c4)cc3C2)c1Cc1ccc(F)cc1` [Example 692, 6-(4-{2-amino-5-[(4-fluorophenyl)methyl]-6-methylpyrimidin-4-yl}-2,3,4,5-tetrahydro-1,4-benzoxazepin-7-yl)[1,3]thiazolo[5,4-b]pyridin-2-amine]: the IC50 was at most 0.01 µM.

The target of a further assay is PI3Kα (Homo sapiens, UniProt P42336). Description: PI3K biochemical assay (luciferase-luciferin ATP consumption). The conditions noted are these: 1.5 nM enzyme, 1 μM ATP, 10 μM PIP2; read-out: IC50 for PI3Kα in this assay. Here is the method:
PI3Kα activity is measured as the percent of ATP consumed following the kinase reaction using luciferase-luciferin-coupled chemiluminescence. Reactions were conducted in 384-well white, medium binding microtiter plates (Greiner). Kinase reactions were initiated by combining test compounds, ATP, substrate (PIP2), and kinase in a 20 μL volume in a buffer solution. The standard PI3Kalpha assay buffer is composed 50 mM Tris, pH 7.5, 1 mM EGTA, 10 mM MgCl2, 1 mM DTT and 0.03% CHAPS. The standard assay concentrations for enzyme, ATP, and substrate are 1.5 nM, 1 μM, and 10 μM, respectively. The reaction mixture was incubated at ambient temperature for approximately 2 h. Following the kinase reaction, a 10 μL aliquot of luciferase-luciferin mix (Promega Kinase-Glo) was added and the chemiluminescence signal measured using a Victor2 plate reader (Perkin Elmer). Total ATP consumption was limited to 40-60% and IC50 values of control compounds correlate well with literature references. Substituting PI3Kα with PI3Kβ, PI3Kγ, or PI3Kδ, the inhibitory activity of the compounds for the other isoforms of I3K were measured.
Regarding `Cc1nc2ccc(-c3ccc4c(c3)CN(c3ncnc(Cc5ccccc5)c3C)CCO4)cc2[nH]1` [Example 41, 7-(2-methyl-1H-benzimidazol-6-yl)-4-[5-methyl-6-(phenylmethyl)pyrimidin-4-yl]-2,3,4,5-tetrahydro-1,4-benzoxazepine], the IC50 lay in the range of 1 to 2 µM.

Consider `Cc1nc2ccc(-c3ccc4c(c3)CN(c3ncnc5[nH]ncc35)CCO4)cc2[nH]1` [Example 52, 7-(2-methyl-1H-benzimidazol-6-yl)-4-(1H-pyrazolo[3,4-d]pyrimidin-4-yl)-2,3,4,5-tetrahydro-1,4-benzoxazepine], for which the IC50 was at least 2 µM.

Consider `Cc1nc2ccc(-c3ccc4c(c3)CN(c3nc(SCc5ccccc5)nc5c3CCC5)CCO4)cc2[nH]1` [Example 53, 7-(2-methyl-1H-benzimidazol-6-yl)-4-{2-[(phenylmethyl)thio]-6,7-dihydro-5H-cyclopenta[d]pyrimidin-4-yl}-2,3,4,5-tetrahydro-1,4-benzoxazepine], for which the IC50 is at least 2 µM.

Turning to `Cc1nc2ccc(-c3ccc4c(c3)CN(c3ncnc(C)c3CC(C)C)CCO4)cc2[nH]1` [Example 67, 7-(2-methyl-1H-benzimidazol-6-yl)-4-[6-methyl-5-(2-methylpropyl)pyrimidin-4-yl]-2,3,4,5-tetrahydro-1,4-benzoxazepine], the IC50 lay in the range of 1 to 2 µM.

With `CSc1nc2c(c(N3CCOc4ccc(-c5ccc6nc(C)[nH]c6c5)cc4C3)n1)CC(C)C2` (stereo not drawn) [Example 71, 7-(2-methyl-1H-benzimidazol-6-yl)-4-[6-methyl-2-(methylthio)-6,7-dihydro-5H-cyclopenta[d]pyrimidin-4-yl]-2,3,4,5-tetrahydro-1,4-benzoxazepine], the IC50 was in the range of 1 to 2 µM.

Consider `COCCOC(=O)Nc1nc2ccc(-c3ccc4c(c3)CN(c3ccnc5ccccc35)CCO4)cc2[nH]1` [Example 118, 2-(methyloxy)ethyl [6-(4-quinolin-4-yl-2,3,4,5-tetrahydro-1,4-benzoxazepin-7-yl)-1H-benzimidazol-2-yl]carbamate], for which the IC50 lay within 1 to 2 µM.

As for `Cn1ncc2cc(-c3ccc4c(c3)CN(c3ccnc5ccccc35)CCO4)ccc21` [Example 139, 7-(1-methyl-1H-indazol-5-yl)-4-quinolin-4-yl-2,3,4,5-tetrahydro-1,4-benzoxazepine], the IC50 lay in the range of 1 to 2 µM.

For the compound `CNC(=O)c1cccc(-c2ccc3c(c2)CN(c2nc(C)nc4cc(OC)ccc24)CCO3)c1` [Example 644, N-methyl-3-{4-[2-methyl-7-(methyloxy)quinazolin-4-yl]-2,3,4,5-tetrahydro-1,4-benzoxazepin-7-yl}benzamide], the IC50 was at least 2 µM.

`CC[C@H]1CCc2c(nc(C)nc2N2CCOc3ccc(-c4cnc5nc([C@H](C)NC(=O)OCc6ccccc6)[nH]c5c4)cc3C2)C1` [Example 646, phenylmethyl [(1S)-1-(6-{4-[(7S)-7-ethyl-2-methyl-5,6,7,8-tetrahydroquinazolin-4-yl]-2,3,4,5-tetrahydro-1,4-benzoxazepin-7-yl}-1H-imidazo[4,5-b]pyridin-2-yl)ethyl]carbamate]: the IC50 lay within 1 to 2 µM.
